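Five concentrations, 48 hours, 96-well plates. GI50 marks 50% less growth.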 The source made the active and inactive calls. No stated cut-off is given here; in the data, active = GI50 up to about 1.1 µM and inactive = higher.
Assays:
Experiment in all cases: NCI anticancer screen, dose series, 48 h
[1] = system: HCT-116
[2] = system: SK-MEL-28
[3] = system: T47D
[4] = system: DLD-1
[5] = system: SK-MEL-2
[6] = system: HT-29
[7] = system: HOP-92
[8] = system: MDA-MB-231
[9] = system: HCT-15
[10] = system: XF498
[11] = system: OVCAR-3
[12] = system: CAKI-1
[13] = system: HL-60
[14] = system: SW-620
[15] = system: Hs-578T
[16] = system: SF-268
[17] = system: MDA-N
[18] = system: DMS-273
[19] = system: LXFL 529
[20] = system: NCI-H226
[21] = system: SF-295
[22] = system: UACC-62
[23] = system: M19-MEL
[24] = system: CCRF-CEM
[25] = system: K562
[26] = system: NCI-H23
[27] = system: SNB-19
[28] = system: NCI-H522
[29] = system: RXF 631
[30] = system: LOX IMVI
[31] = system: SN12C
[32] = system: COLO 205
[33] = system: A498
[34] = system: PC-3
[35] = system: SK-OV-3
[36] = system: NCI/ADR-RES
[37] = system: A549
[38] = system: DU-145
[39] = system: MCF7
[40] = system: HOP-62
[41] = system: Malme-3M
[42] = system: SF-539
[43] = system: OVCAR-8
[44] = system: ACHN
[45] = system: RPMI-8226
[46] = system: 786-0
[47] = system: SR
[48] = system: NCI-H460
[49] = system: HCC 2998
[50] = system: BT-549
[51] = system: OVCAR-4
[52] = system: SK-MEL-5
[53] = system: IGROV-1
[54] = system: TK-10
[55] = system: DMS-114
[56] = system: KM12
[57] = system: UO-31
[58] = system: MOLT-4
[59] = system: SNB-75
[60] = system: MDA-MB-435
[61] = system: M14
[62] = system: UACC-257
[63] = system: U-251
[64] = system: OVCAR-5
[65] = system: EKVX
[66] = system: SNB-78
[67] = system: HOP-18
[68] = system: KM-20L2

Cc1nc2ccc(NCCN(C)C)c3c(=O)c4cc(O)ccc4n1c23
GI50 [1]: 0.0873 µM (active) | GI50 [2]: 3.03 µM (inactive) | GI50 [3]: 1.21 µM (inactive) | GI50 [4]: 0.148 µM (active) | GI50 [5]: 3.35 µM (inactive) | GI50 [6]: 0.156 µM (active) | GI50 [7]: 1.12 µM (active) | GI50 [8]: 2.56 µM (inactive) | GI50 [9]: 0.394 µM | GI50 [10]: 1.56 µM (inactive) | GI50 [11]: 1.27 µM (inactive) | GI50 [12]: 0.25 µM (active) | GI50 [13]: 0.662 µM (active) | GI50 [14]: 0.122 µM (active) | GI50 [15]: 0.508 µM (active) | GI50 [16]: 0.75 µM (active) | GI50 [17]: 1.43 µM (inactive) | GI50 [18]: 0.189 µM (active) | GI50 [19]: 0.752 µM (active) | GI50 [20]: 0.109 µM (active) | GI50 [21]: 1.04 µM (active) | GI50 [22]: 1.25 µM (inactive) | GI50 [23]: 1.54 µM (inactive) | GI50 [24]: 0.0962 µM (active) | GI50 [25]: 0.298 µM (active) | GI50 [26]: 0.318 µM (active) | GI50 [27]: 0.281 µM (active) | GI50 [28]: 0.112 µM (active) | GI50 [29]: 0.0355 µM (active) | GI50 [30]: 0.379 µM (active) | GI50 [31]: 0.299 µM (active) | GI50 [32]: 0.445 µM (active) | GI50 [33]: 1.42 µM (inactive) | GI50 [34]: 0.653 µM (active) | GI50 [35]: 0.845 µM (active) | GI50 [36]: 1.27 µM (inactive) | GI50 [37]: 0.0933 µM (active) | GI50 [38]: 1.46 µM (inactive) | GI50 [39]: 0.743 µM (active) | GI50 [40]: 0.433 µM (active) | GI50 [41]: 1.19 µM (inactive) | GI50 [42]: 0.733 µM (active) | GI50 [43]: 0.248 µM (active) | GI50 [44]: 0.103 µM (active) | GI50 [45]: 1.19 µM (inactive) | GI50 [46]: 0.228 µM (active) | GI50 [47]: < 0.01 µM (active) | GI50 [48]: 0.0291 µM (active) | GI50 [49]: 0.252 µM (active) | GI50 [50]: 3.45 µM (inactive) | GI50 [51]: 0.63 µM (active) | GI50 [52]: 1.73 µM (inactive) | GI50 [53]: 0.839 µM (active) | GI50 [54]: 2.75 µM (inactive) | GI50 [55]: 0.885 µM (active) | GI50 [56]: 0.783 µM (active) | GI50 [57]: 2.49 µM (inactive) | GI50 [58]: 0.0164 µM (active) | GI50 [59]: 0.418 µM (active) | GI50 [60]: 1.82 µM (inactive) | GI50 [61]: 2.67 µM (inactive) | GI50 [62]: 3.56 µM (inactive) | GI50 [63]: 0.352 µM (active) | GI50 [64]: 1.42 µM (inactive)

O=S(=O)(CF)OCCCCOS(=O)(=O)CF
GI50 [1]: > 100 µM (inactive) | GI50 [2]: > 100 µM (inactive) | GI50 [5]: > 100 µM (inactive) | GI50 [6]: > 100 µM (inactive) | GI50 [7]: 0.701 µM (active) | GI50 [9]: > 100 µM | GI50 [11]: > 100 µM (inactive) | GI50 [12]: > 100 µM (inactive) | GI50 [13]: 13.2 µM (inactive) | GI50 [14]: > 100 µM (inactive) | GI50 [16]: > 100 µM (inactive) | GI50 [18]: 75.9 µM (inactive) | GI50 [19]: > 100 µM (inactive) | GI50 [20]: > 100 µM (inactive) | GI50 [21]: > 100 µM (inactive) | GI50 [65]: > 100 µM (inactive) | GI50 [22]: > 100 µM (inactive) | GI50 [23]: > 100 µM (inactive) | GI50 [24]: 32.2 µM (inactive) | GI50 [25]: > 100 µM (inactive) | GI50 [26]: 97.9 µM (inactive) | GI50 [27]: 95.3 µM (inactive) | GI50 [28]: > 100 µM (inactive) | GI50 [29]: > 100 µM (inactive) | GI50 [30]: 97.1 µM (inactive) | GI50 [31]: > 100 µM (inactive) | GI50 [32]: > 100 µM (inactive) | GI50 [33]: > 100 µM (inactive) | GI50 [35]: > 100 µM (inactive) | GI50 [41]: > 100 µM (inactive) | GI50 [42]: > 100 µM (inactive) | GI50 [43]: > 100 µM (inactive) | GI50 [66]: > 100 µM (inactive) | GI50 [44]: 20.4 µM (inactive) | GI50 [45]: > 100 µM (inactive) | GI50 [48]: 23.8 µM (inactive) | GI50 [52]: > 100 µM (inactive) | GI50 [67]: > 100 µM (inactive) | GI50 [53]: > 100 µM (inactive) | GI50 [54]: > 100 µM (inactive) | GI50 [55]: 74 µM (inactive) | GI50 [57]: > 100 µM (inactive) | GI50 [58]: 23.8 µM (inactive) | GI50 [59]: 27.7 µM (inactive) | GI50 [68]: > 100 µM (inactive) | GI50 [61]: > 100 µM (inactive) | GI50 [63]: > 100 µM (inactive)
